51 compounds from patent US10682319B2, “Necrosis inhibitors” (National Institute of Biological Sciences, Beijing, priority 2014, dated 2020) can be followed below.

In general, EC50 refers to the concentration at which the effect is half-maximal.

Read-outs that look alike come from different tables or passages of the source.

The experiment concerns HT-29 cells. In words: Necrosis assay (TNF-α/Smac mimetic/z-VAD induced necrosis, cell viability by ATP level). Conditions: HT-29, TNF-α + Smac mimetic + z-VAD, 24 hrs, ATP level, read-out: EC50 (inhibition of necrosis in HT-29 cells). Format: cell-based. As to the method: HT-29 cells were cultured in McCoy's 5 A culture medium (Invitrogen). On day one, HT-29 cells were plated in 96-well assay plates at density of 2,500-3,500 cells per well. On day two, necrosis were induced by adding 20 ng/ml TNF-α (T), 100 nM Smac mimetic (S), and […] z-VAD (Z). At the same time, […] compound from a chemical library of ˜200,000 compounds was delivered into each well. After 24 hrs treatment, cell viability was determined by measuring ATP level using the CellTiter-Glo Luminescent Cell Viability Assay kit. A CellTiter-Glo Assay (Promega) was performed according to the manufacturer's instructions Luminescence was recorded with a PerkinElmer EnSpire Multimode Plate Reader. Survived cells were normalized to those cells treated with DMSO. Nec-1 was used as a positive control for screening necrosis inhibitors. Data are represented as mean±standard deviation of duplicates
Dose-dependent inhibition of necrosis by the compounds in HT-29 cells were determined by measuring ATP levels as described above.

The mark [1] stands for this setting: Homo sapiens, HT-29, 24 h, values given as ranges in uM.

Consider `CCC(C)(C)C(=O)N[C@@H](C(=O)NCCc1ccccc1)c1ccccc1` [Compound 125, (R)-2,2-dimethyl-N-(2-oxo-2-(phenethylamino)-1-phenylethyl)butanamide], for which the EC50 under setting [1] fell in the range of 1 to 100 µM.
Consider `CCN(Cc1cc(F)cc(F)c1F)C(=O)N(C)C(C)C` [Compound 115, 1-ethyl-3-isopropyl-3-methyl-1-(2,3,5-trifluorobenzyl)urea], for which the EC50 under setting [1] was 1 to 100 µM.
On the same count and under the same terms, as for `CCC(C)(C)C(=O)N(C)Cc1cccc(OC(F)(F)F)c1F` [Compound 33, N-(2-fluoro-3-(trifluoromethoxy)benzyl)-N,2,2-trimethylbutanamide], the figure is 1 to 100 µM; as for `CCC(C)(C)C(=O)N(C)Cc1cc(F)ccc1C#N` [Compound 57, N-(2-cyano-5-fluorobenzyl)-N,2,2-trimethylbutanamide], 1 to 10 µM; as for `CCC(C)(C)C(=O)N(C)Cc1ccn(C)n1` [Compound 45, N,2,2-trimethyl-N-((1-methyl-1H-pyrazol-3-yl)methyl)butanamide], 1 to 100 µM.
Still for that read-out and setting: as for `CCC(C)(C)C(=O)N[C@@H](C(=O)NCCOc1ccccc1)c1ccccc1` [Compound 127, (R)-2,2-dimethyl-N-(2-oxo-2-((2-phenoxyethyl)amino)-1-phenylethyl)butanamide], the figure is 1 to 100 µM; as for `CN(Cc1cc(F)cc(F)c1F)[S+]([O-])C(C)(C)C` (stereo not drawn) [Compound 78, N,2-dimethyl-N-(2,3,5-trifluorobenzyl)propane-2-sulfinamide], 1 to 100 µM.
Still for that read-out and setting: as for `CNCC(C)(C)C(=O)N(C)Cc1cc(F)c(F)c(F)c1` [Compound 68, N,2,2-trimethyl-3-(methylamino)-N-(3,4,5-trifluorobenzyl) propanamide], the figure is 1 to 100 µM; as for `CCC(C)(C)C(=O)NCc1cccc(F)c1` [Compound 5, N-(3-fluorobenzyl)-2,2-dimethylbutanamide], 1 to 10 µM.
`CCC(C)(CC)C(=O)N(C)Cc1cc(F)c(F)c(F)c1` [Compound 72, 2-ethyl-N,2-dimethyl-N-(3,4,5-trifluorobenzyl)butanamide]: the 50% effective concentration (EC50) under setting [1] fell in the range of 1 to 10 µM.
As to `CCC(C)(C)C(=O)N(O)Cc1sc(C)cc1C` [Compound 138], under setting [1], the EC50 lay within 1 to 100 µM.
Still for that read-out and setting: as for `CCC(C)(C)C(=O)N(Cc1cc(F)cc(F)c1F)OC` [Compound 135], the figure is 1 to 100 µM.
Still for that read-out and setting: next, `CCC(C)(C)C(=O)N(C)Cc1cccc(OC)c1` [Compound 20, N-(3-methoxybenzyl)-N,2,2-trimethylbutanamide]: 1 to 100 µM; `CCC(C)(C)C(=O)N(C)Cc1cc(C)cc(C)c1` [Compound 32, N-(3,5-dimethylbenzyl)-N,2,2-trimethylbutanamide]: 1 to 100 µM.
Turning to `CN(Cc1cc(F)cc(F)c1F)C(=O)C1(C)CC1` [Compound 80, N,1-dimethyl-N-(2,3,5-trifluorobenzyl)cyclopropanecarboxamide], the EC50 under setting [1] is 1 to 100 µM.
Same read-out and setting: as for `CN(Cc1cc(F)cc(F)c1F)C(=O)C1CCC1` [Compound 83, N-methyl-N-(2,3,5-trifluorobenzyl)cyclobutanecarboxamide], the figure is 1 to 10 µM; as for `CCC(C)(C)C(=O)N[C@@H](CC(=O)NC)c1ccccc1` [Compound 101, (S)-2,2-dimethyl-N-(3-(methylamino)-3-oxo-1-phenylpropyl)butanamide], 1 to 100 µM.
For the compound `CCC(C)(C)C(=O)N(C)Cc1ccc(F)c(F)c1` [Compound 91, N-(3,4-difluorobenzyl)-N,2,2-trimethylbutanamide], the concentration giving a half-maximal response (EC50) (values given as ranges in nM) lay within 0.001 to 1 µM.
For the compound `CCC(C)(C)C(=O)N(CCO)Cc1cc(F)cc(F)c1F` [Compound 77, N-(2-hydroxyethyl)-2,2-dimethyl-N-(2,3,5-trifluorobenzyl)butanamide], for the setting “values given as ranges in nM”, the 50% effective concentration (EC50) lay in the range of 0.001 to 1 µM.
In the case of `CCC(C)(C)C(=O)N(Cc1cccc(F)c1)CC1CC1` [Compound 64, N-(cyclopropylmethyl)-N-(3-fluorobenzyl)-2,2-dimethylbutanamide], the concentration giving a half-maximal response (EC50) under setting [1] fell in the range of 1 to 100 µM.
On the same count and under the same terms, as for `CCC(C)(C)C(=O)N(Cc1cc(F)c(F)c(F)c1)OC` [Compound 134], the figure is 1 to 100 µM.
In the case of `CCC(C)(C)C(=O)NCc1cc(F)cc(F)c1F` [Compound 70, 2,2-dimethyl-N-(2,3,5-trifluorobenzyl)butanamide], the concentration giving a half-maximal response (EC50) (values given as ranges in nM) is 0.001 to 1 µM.
With `CCN(Cc1ccccc1F)C(=O)C(C)(C)CC` [Compound 10, N-ethyl-N-(2-fluorobenzyl)-2,2-dimethylbutanamide], the EC50 under setting [1] was in the range of 1 to 10 µM.
As for `COC(C)(C)C(=O)N(C)Cc1cc(F)cc(F)c1F` [Compound 67, 2-methoxy-N,2-dimethyl-N-(2,3,5-trifluorobenzyl)propanamide], under setting [1], the EC50 lay in the range of 1 to 10 µM.
The same measure, in the same setting: next, `CCC(C)(C)C(=O)N[C@@H](CC(=O)Nc1ccccc1)c1ccccc1` [Compound 106, (S)-2,2-dimethyl-N-(3-oxo-1-phenyl-3-(phenylamino)propyl)butanamide]: 1 to 100 µM.
On the same count and under the same terms, as for `CON(Cc1cc(F)cc(F)c1F)C(=O)C(C)(C)C(C)(F)F` [Compound S20], the figure is 1 to 100 µM.
As for `CN(Cc1ccccc1F)C(=O)C1CCCCC1` [Compound 60, N-(2-fluorobenzyl)-N-methylcyclohexanecarboxamide], the EC50 under setting [1] is 1 to 10 µM.
On the same count and under the same terms, as for `CCC(C)(C)C(=O)N(CCCOC)Cc1cccc(F)c1` [Compound 63, N-(3-fluorobenzyl)-N-(3-methoxypropyl)-2,2-dimethylbutanamide], the figure is 1 to 100 µM; as for `CCC(C)(C)C(=O)N(Cc1ccc(F)cc1)OC` [Compound 130], 1 to 100 µM.
Consider `CCC(C)(C)C(=O)N[C@@H](CC(=O)NCc1ccccc1)c1ccccc1` [Compound 107, (S)—N-(3-(benzylamino)-3-oxo-1-phenylpropyl)-2,2-dimethylbutanamide], for which the half-maximal effective concentration (EC50) under setting [1] lay in the range of 1 to 100 µM.
Same read-out and setting: as for `CON(Cc1ccc(F)cc1F)C(=O)C(C)(C)C(C)(F)F` [Compound S16], the figure is 1 to 100 µM; as for `CCC(C)(C)C(=O)N(C)C1(c2ccccc2)CC1` [Compound 55, N,2,2-trimethyl-N-(1-phenylcyclopropyl)butanamide], 1 to 100 µM.
`CCC(C)(C)C(=O)N(Cc1ccccc1)OC(C)=O` [Compound S3, N-acetoxy-N-benzyl-2,2-dimethylbutanamide]: where the note is “values given as ranges in nM”, the EC50 fell in the range of 0.001 to 1 µM.
For `CCC(C)(C)C(=O)N(C)Cc1ccco1` [Compound 43, N-(furan-2-ylmethyl)-N,2,2-trimethylbutanamide], the 50% effective concentration (EC50) (values given as ranges in nM) is 0.001 to 1 µM.
For the compound `CCC(C)(C)C(=O)N[C@@H](CO)c1ccccc1` [Compound 109, (R)—N-(2-hydroxy-1-phenylethyl)-2,2-dimethylbutanamide], under setting [1], the half-maximal effective concentration (EC50) is 1 to 100 µM.
Still for that read-out and setting: as for `CCC(C)(C)C(=O)N(C)[C@@H](CO)c1cc(F)cc(F)c1F` [Compound 149], the figure is 1 to 100 µM.
Regarding `CCC(C)(C)C(=O)N(C)Cc1ccccc1` [Compound 90, N-benzyl-N,2,2-trimethylbutanamide], the EC50 (values given as ranges in nM) lay in the range of 0.001 to 1 µM.
Turning to `CCC(C)(C)C(=O)N[C@@H](CC(=O)N1CCCCC1)c1ccccc1` [Compound 105, (S)-2,2-dimethyl-N-(3-oxo-1-phenyl-3-(piperidin-1-yl)propyl)butanamide], the EC50 under setting [1] fell in the range of 1 to 100 µM.
The same measure, in the same setting: as for `CCC(C)(C)C(=O)NCc1ccc(F)c(F)c1` [Compound 8, N-(3,4-difluorobenzyl)-2,2-dimethylbutanamide], the figure is 1 to 10 µM; as for `CCC(C)(C)C(=O)N(C)Cc1ccncc1F` [Compound 36, N-((3-fluoropyridin-4-yl)methyl)-N,2,2-trimethylbutanamide], 1 to 100 µM; as for `CN(Cc1cc(F)c(F)c(F)c1)C(=O)C(C)(C)CO` [Compound 66, 3-hydroxy-N,2,2-trimethyl-N-(3,4,5-trifluorobenzyl)propanamide], 1 to 100 µM.
Consider `CCC(C)(C)C(=O)N(C)Cc1cccnc1OC` [Compound 37, N-((2-methoxypyridin-3-yl)methyl)-N,2,2-trimethylbutanamide], for which the 50% effective concentration (EC50) under setting [1] was 1 to 100 µM.
On the same count and under the same terms, next, `CCC(C)(C)C(=O)N(Cc1ccccc1)OC` [Compound 151]: 1 to 100 µM.
`CON(Cc1ccc(F)c(F)c1)C(=O)C(C)(C)C(C)(F)F` [Compound S17]: under setting [1], the EC50 lay within 1 to 100 µM.
Consider `CN(Cc1cc(F)cc(F)c1F)S(=O)(=O)C1CCCCC1` [Compound 79, N-methyl-N-(2,3,5-trifluorobenzyl)cyclohexanesulfonamide], for which, under setting [1], the EC50 fell in the range of 1 to 100 µM.
With `CCC(C)(C)C(=O)N(C)Cc1cc(F)ccc1F` [Compound 25, N-(2,5-difluorobenzyl)-N,2,2-trimethylbutanamide], under “values given as ranges in nM”, the concentration giving a half-maximal response (EC50) was in the range of 0.001 to 1 µM.
For the compound `CCC(C)(C)C(=O)NCc1ccccc1` [Compound 58, N-benzyl-2,2-dimethylbutanamide], under “values given as ranges in nM”, the EC50 fell in the range of 0.001 to 1 µM.
In the case of `CCC(C)(C)C(=O)N[C@@H](C(=O)NCc1ccccc1)c1ccccc1` [Compound 124, (R)—N-(2-(benzylamino)-2-oxo-1-phenylethyl)-2,2-dimethylbutanamide], the EC50 under setting [1] lay in the range of 1 to 100 µM.
The same measure, in the same setting: as for `CCC(C)(C)C(=O)N(C)Cc1c(F)cc(F)cc1F` [Compound 48, N,2,2-trimethyl-N-(2,4,6-trifluorobenzyl)butanamide], the figure is 1 to 10 µM; as for `CCC(C)(C)C(=O)N[C@@H](CC(=O)NCCOCCOC)c1ccccc1` [Compound 102, (S)—N-(3-((2-(2-methoxyethoxy)ethyl)amino)-3-oxo-1-phenylpropyl)-2,2-dimethylbutanamide], 1 to 100 µM.
Regarding `CCC(C)(C)C(=O)N(C)Cc1cccc(C#N)c1` [Compound 17, N-(3-cyanobenzyl)-N,2,2-trimethylbutanamide], the EC50 (values given as ranges in nM) was in the range of 0.001 to 1 µM.
